Measurements from patent publication US8153385B2, “Target protein and target gene in drug designing and screening method” (Reverse Proteomics Research Institute Co., Ltd., priority 2004, dated 2012).

Target: T1, FLJ13397 clone-derived protein (CARP) (Homo sapiens, UniProt Q9H8M7)
T1 construct: A human full-length cDNA clone was expressed as a protein with an N-terminal His tag; His tag (pDEST17 Gateway vector) (N); made in house; host or cells: Escherichia coli BL21star(DE3)pLysS
T1 sequence (Q9H8M7 1-445): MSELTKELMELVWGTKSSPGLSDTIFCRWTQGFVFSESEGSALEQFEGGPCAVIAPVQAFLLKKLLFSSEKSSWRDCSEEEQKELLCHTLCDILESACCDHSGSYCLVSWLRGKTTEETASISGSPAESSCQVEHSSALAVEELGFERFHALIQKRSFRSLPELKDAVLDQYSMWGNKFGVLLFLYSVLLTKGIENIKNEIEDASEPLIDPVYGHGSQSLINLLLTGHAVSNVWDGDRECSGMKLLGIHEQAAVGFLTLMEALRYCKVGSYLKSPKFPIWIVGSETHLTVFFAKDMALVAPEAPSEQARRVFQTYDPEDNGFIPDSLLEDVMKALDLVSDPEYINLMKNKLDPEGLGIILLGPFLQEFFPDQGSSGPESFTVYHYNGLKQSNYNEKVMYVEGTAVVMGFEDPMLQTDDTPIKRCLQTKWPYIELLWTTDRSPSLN
Assay: SEC/MS (size exclusion chromatography / mass analysis) interaction analysis between FLJ13397 clone-derived protein and compounds
Type: binding
Procedure: BP-reaction was performed on human full-length cDNA clone and the cloning vector Gateway pDONR201 by the PCR cloning method using the Invitrogen Gateway system to yield an entry clone. LR-reaction was performed on this entry clone with the destination vector pDEST17 (Gateway System) and LR Clonase at 25° C. for 60 minutes to yield an expression plasmid. Escherichia coli competent cell BL21star(DE3)pLysS were transformed with this expression plasmid, a clone incorporating the expression vector was selected, and a frozen stock was prepared. The transformant was inoculated into LB medium and precultured, after which it was transferred into SB medium and cultured to induce the expression by IPTG, and the cells were stored frozen.
A human full-length cDNA clone was expressed as a protein with an N-terminal His tag. This clone was purified using BioRobot 8000 (Qiagen) or ACTA Crystal (Amersham). […] In the purification with ACTA Crystal, affinity purification using a HisTrap HP column was followed by gel filtration purification using the Gel Filtration Column HiLoad 16/60 or a 10/30 Superdex 75 prep grade column. The purified fraction was used for interaction analysis after being subjected to SDS-PAGE to verify the estimated molecular weight and purity.
To analyze the interactions between commonly used drugs and proteins expressed from human full-length cDNA clones while keeping both the proteins and the compounds in non-modified, non-immobilized state, size exclusion chromatography (SEC) and mass analysis were used in combination (FIGS. 1 and 2). The specific procedures are shown below.
The compound-protein mixture prepared in step 1 was subjected to chromatography using an SEC column, the compound and the protein were separated by SEC, and the bound compound or compound that interacted with the protein in the protein fraction was analyzed using a mass analyzer.
Protein concentrations were measured using BCA Protein Assay (PIERCE), in consideration of the purity calculated by SDS-PAGE.
Mass analysis was performed using LCQ DECA XP (Thermoelectron) or Q-TOFmicro (Micromass), equipped with an ESI probe. The LC pump used was Agilent 1100 (Yokogawa Analytical Systems), and the autosampler used was HTC-PAL (CTC Analytics) equipped with a cooling stacker.
In the SEC method using a 384-well spin column, Unifilter 100 (Whatman), packed with 10 μL (dry volume) of Bio-Gel P6 (BIO-RAD) and swollen with milliQ water, was used as the SEC column. […] The SEC spin column was mounted on an acetonitrile-aliquoted 384-well U-bottom plate and centrifuged; the SEC spin column filtrate, which is a protein fraction, was retrieved in 50% acetonitrile. The protein precipitate produced by the acetonitrile was removed via centrifugation and filtration for protein removal; the resulting filtrate was concentrated by centrifugation and re-dissolved in 10 μL of 50% methanol to obtain a mass analysis sample. The mobile phase supplied to the mass analyzer was 0.1% formic acid/50% methanol solution in the positive ion mode, and 0.1% ammonia/50% methanol solution in the negative ion mode; these mobile phases were used at a flow rate of 40 μL/min. 2-μL of mass analysis samples were injected using an autosampler at 2-Minute intervals; the mass spectral intensity of the compound was measured to obtain the spectral intensity of the pharmaceutical compound contained in the SEC spin column filtrate (protein fraction eluted from SEC).

[1] = compound 1 μM, protein 0 μM (protein-free reference)
[2] = compound 1 μM, protein 23.75 μM
[3] = compound 10 μM, protein 0 μM (protein-free reference)
[4] = compound 10 μM, protein 23.75 μM
[5] = compound 10 μM, protein 47.5 μM
[6] = compound 100 μM, protein 0 μM (protein-free reference)
[7] = compound 100 μM, protein 23.75 μM
[8] = compound 100 μM, protein 47.5 μM
[9] = compound 250 μM, protein 0 μM (protein-free reference)
[10] = compound 250 μM, protein 23.75 μM
[11] = compound 250 μM, protein 47.5 μM

spectrum intensity of the extracted mass range (compound in SEC spin column filtrate) [1]	spectrum intensity of the extracted mass range (compound in SEC spin column filtrate) [2]	spectrum intensity of the extracted mass range (compound in SEC spin column filtrate) (compound 1 μM, protein 47.5 μM)	spectrum intensity of the extracted mass range (compound in SEC spin column filtrate) [3]	spectrum intensity of the extracted mass range (compound in SEC spin column filtrate) [4]	spectrum intensity of the extracted mass range (compound in SEC spin column filtrate) [5]	spectrum intensity of the extracted mass range (compound in SEC spin column filtrate) [6]	spectrum intensity of the extracted mass range (compound in SEC spin column filtrate) [7]	spectrum intensity of the extracted mass range (compound in SEC spin column filtrate) [8]	spectrum intensity of the extracted mass range (compound in SEC spin column filtrate) [9]	spectrum intensity of the extracted mass range (compound in SEC spin column filtrate) [10]	spectrum intensity of the extracted mass range (compound in SEC spin column filtrate) [11]	interaction with the FLJ13397-expressed protein (judgement) (judged from increase of spectrum intensity with doses of compound and protein)	SMILES
5598524	1659600	2958392	4341825	4509110	7550402	12703620	32945929	42993061	39100216	125775631	559844		Nc1nc2ccccc2n1Cc1ccccc1 [2-Amino-1-Benzylbenzimidazole, 2-Amino-1-benzylbenzimidazole]
825049	360734	484482	1750199	1437041	1664928	36160236	53411123	52719227	91113992	98334673	159174682		CCCS(=O)(=O)c1ccc2[nH]c(N)nc2c1 [2-Amino-5-N-Propylsulphonylbenzimidazole, 2-Amino-5-N-propylsulphonylbenzimidazole]
276565	42562	152781	153479	69826	71963	437739	1819414	2080493	2837732	7370524	8155388		Nc1nc2ccccc2[nH]1 [2-Aminobenzimidazole]
1342766	1155288	761260	5960539	5481616	5089101	94575228	149841728	131428354	66281031	280956724	328407687		CCCS(=O)(=O)c1ccc2nc(NC(=O)OC)[nH]c2c1 [Albendazole Sulfone]
2459590	1627696	1328076	2937731	1321952	2620286	3881633	4636579	4337586	9545633	10439034	13446649		c1ccc2[nH]cnc2c1 [Benzimidazole]

More lines, now with the values behind:

SMILES	spectrum intensity of the extracted mass range (compound in SEC spin column filtrate) [1]	spectrum intensity of the extracted mass range (compound in SEC spin column filtrate) [2]	spectrum intensity of the extracted mass range (compound in SEC spin column filtrate) (compound 1 μM, protein 47.5 μM)	spectrum intensity of the extracted mass range (compound in SEC spin column filtrate) [3]	spectrum intensity of the extracted mass range (compound in SEC spin column filtrate) [4]	spectrum intensity of the extracted mass range (compound in SEC spin column filtrate) [5]	spectrum intensity of the extracted mass range (compound in SEC spin column filtrate) [6]	spectrum intensity of the extracted mass range (compound in SEC spin column filtrate) [7]	spectrum intensity of the extracted mass range (compound in SEC spin column filtrate) [8]	spectrum intensity of the extracted mass range (compound in SEC spin column filtrate) [9]	spectrum intensity of the extracted mass range (compound in SEC spin column filtrate) [10]	spectrum intensity of the extracted mass range (compound in SEC spin column filtrate) [11]	interaction with the FLJ13397-expressed protein (judgement) (judged from increase of spectrum intensity with doses of compound and protein)
CCC[S+]([O-])c1ccc2[nH]c(NC(=O)OC)nc2c1 (stereo not shown) [Albendazole Sulfoxide]	1514429	1280086	1361540	11869270	13449119	14241157	125971079	208777846	241218904	460535649	532900104	372564422	
CCCSc1ccc2nc(NC(=O)OC)[nH]c2c1 [Albendazole]	99130	290428	247973	25263	1117765	603904	221630	6713076	3946588	151791	18185332	55508710	
COc1ccc(CCN2CCC(Nc3nc4ccccc4n3Cc3ccc(F)cc3)CC2)cc1 [Astemizole]	12239048	16006165	18099237	13557249	118520633	36678174	210085727	1213216132	2237504347	710392964	1027353172	2019252410	concentration-dependent interaction
